From ChEMBL document CHEMBL1136559, “Discovery, SAR, synthesis, pharmacokinetic and biochemical characterization of A-192411: a novel fungicidal lipopeptide-(I)” (Bioorg Med Chem Lett, 2003)
Converted amounts (≈) assume the structure as drawn. Starred links: 1 amine or outer side, 2 acyl side, 3 side chain; linkers in the order of their positions; H or OH if unused. Positions of bridges follow the written chain, without caps; N, C: chain ends. Non-standard residues stand in square brackets, D forms with d. Residues, ends and D or L forms follow the SMILES beside them. *: point of attachment. pTerphenylCO(4''-OnC5H11) = CCCCCOc1ccc(-c2ccc(-c3ccc(C(=O)*)cc3)cc2)cc1; Pro(cis-4-guanidino) = NC(N)=N[C@@H]1CN[C@H](C(=O)O)C1; hTyr(3-COCH2NH2) = NCC(=O)c1cc(CC[C@H](N)C(=O)O)ccc1O; X7 = CCCCCCCCOc1ccc(-c2ccc(-c3ccc(C(=O)*)cc3)cc2)cc1; X3 = CCCCCCCCOc1ccc(N2CCN(c3ccc(C(=O)*)cc3)CC2)cc1; X1 = NCC(=O)Nc1cc(CC[C@H](N[*:1])C(=O)[*:2])ccc1O; X4 = NCCC(=O)c1cc(CC[C@H](N[*:1])C(=O)[*:2])ccc1O; X6 = NCC(=O)[C@H]1C[C@@H](C(=O)[*:2])N([*:1])C1; X2 = NC(N)=N[C@H]1CC(C(=O)[*:2])N([*:1])C1; Pro(4S-NH2) = N[C@@H]1CN[C@H](C(=O)O)C1; Hyp = O=C(O)[C@@H]1C[C@@H](O)CN1; Orn = NCCC[C@H](N)C(=O)O

Key:
Candida albicans [1] = assay: Antifungal activity against Candida albicans ATCC 10231; type: functional
Naganishia albida = assay: Antifungal activity against Cryptococcus albidus ATCC 34140; type: functional; settings: Naganishia albida, ATCC 34140; read-out: MIC
[Candida] zeylanoides = Antifungal activity against Candida zeylanoides NRRL Y-112; type: functional
Candida albicans [2] = assay: Antifungal activity against Candida albicans 579A; type: functional; settings: Candida albicans; read-out: MIC
Candida albicans [3] = assay: Antifungal activity against Candida albicans ATCC 62376; type: functional; settings: Candida albicans, ATCC 62376; read-out: MIC
Aspergillus niger = assay: Antifungal activity against Aspergillus niger ATCC 16404; type: functional; settings: Aspergillus niger, ATCC 16404; read-out: MIC
Candida albicans [4] = assay: Antifungal activity against Candida albicans ATCC 38247; type: functional
Candida albicans [5] = assay: Antifungal activity against Candida albicans CAF-2; type: functional; settings: Candida albicans; read-out: MIC
Kluyveromyces marxianus = assay: Antifungal activity against Candida kefyr ATCC 28838; type: functional; settings: Kluyveromyces marxianus, ATCC 28838; read-out: MIC
Candida albicans [6] = assay: Antifungal activity against Candida albicans CCH 442; type: functional
Nakaseomyces glabratus = assay: Antifungal activity against Torulopsis glabrata ATCC 15545; type: functional; settings: Nakaseomyces glabratus, ATCC 15545; read-out: MIC
[7] = Terminal phase volume of distribution was measured in dog after an iv dose of 1 mg/kg; type: ADME, organism-based, Canis lupus familiaris; parameters: dose 1 mg/kg, route intravenous; settings: in vivo, read-out: Va beta
[8] = Area under the curve was measured in dog after an iv dose of 1 mg/kg; type: ADME, organism-based, Canis lupus familiaris; parameters: dose 1 mg/kg, route intravenous; settings: in vivo
[9] = Terminal phase volume of distribution was measured in rat after an iv dose of 1 mg/kg; type: ADME, organism-based; parameters: dose 1 mg/kg, route intravenous; settings: in vivo, read-out: Va beta
[10] = Half-life was measured in mouse after an iv dose of 1 mg/kg; type: ADME, organism-based; parameters: dose 1 mg/kg, route intravenous; settings: in vivo
[11] = Area under the curve was measured in monkey after an iv dose of 1 mg/kg; type: ADME, organism-based; parameters: dose 1 mg/kg, route intravenous; settings: cercopithecidae, in vivo
[12] = Volume of distribution was measured in mouse after an iv dose of 1 mg/kg; type: ADME, organism-based; parameters: dose 1 mg/kg, route intravenous; settings: in vivo, read-out: Vv
[13] = Volume of distribution was measured in monkey after an iv dose of 1 mg/kg; type: ADME, organism-based; parameters: dose 1 mg/kg, route intravenous; settings: cercopithecidae, in vivo, read-out: Vv
[14] = Terminal phase volume of distribution was measured in monkey after an iv dose of 1 mg/kg; type: ADME, organism-based; parameters: dose 1 mg/kg, route intravenous; settings: cercopithecidae, in vivo, read-out: Va beta
[15] = Half-life was measured in monkey after an iv dose of 1 mg/kg; type: ADME, organism-based; parameters: dose 1 mg/kg, route intravenous; settings: cercopithecidae, in vivo
[16] = Terminal phase volume of distribution was measured in mouse after an iv dose of 1 mg/kg; type: ADME, organism-based; parameters: dose 1 mg/kg, route intravenous; settings: in vivo, read-out: Va beta
[17] = Plasma clearance for the compound was measured in monkey after an iv dose of 1 mg/kg; type: ADME, organism-based; parameters: dose 1 mg/kg, route intravenous; settings: cercopithecidae, read-out: Clp (converted)
[18] = Volume of distribution was measured in dog after an iv dose of 1 mg/kg; type: ADME, organism-based, Canis lupus familiaris; parameters: dose 1 mg/kg, route intravenous; settings: in vivo, read-out: Vv
[19] = Plasma clearance for the compound was measured in mouse after an iv dose of 1 mg/kg; type: ADME, organism-based; parameters: dose 1 mg/kg, route intravenous; settings: read-out: Clp (converted)
[20] = Plasma clearance for the compound was measured in rat after an iv dose of 1 mg/kg; type: ADME, organism-based; parameters: dose 1 mg/kg, route intravenous; settings: read-out: Clp (converted)
[21] = Plasma clearance for the compound was measured in dog after an iv dose of 1 mg/kg; type: ADME, organism-based, Canis lupus familiaris; parameters: dose 1 mg/kg, route intravenous; settings: read-out: Clp (converted)
[22] = Volume of distribution was measured in rat after an iv dose of 1 mg/kg; type: ADME, organism-based; parameters: dose 1 mg/kg, route intravenous; settings: in vivo, read-out: Vv
[23] = Area under the curve was measured in rat after an iv dose of 1 mg/kg; type: ADME, organism-based; parameters: dose 1 mg/kg, route intravenous; settings: in vivo
[24] = Area under the curve was measured in mouse after an iv dose of 1 mg/kg; type: ADME, organism-based; parameters: dose 1 mg/kg, route intravenous; settings: in vivo
[25] = Half-life was measured in dog after an iv dose of 1 mg/kg; type: ADME, organism-based, Canis lupus familiaris; parameters: dose 1 mg/kg, route intravenous; settings: in vivo
[26] = Half-life was measured in rat after an iv dose of 1 mg/kg; type: ADME, organism-based; parameters: dose 1 mg/kg, route intravenous; settings: in vivo
[27] = Candida albicans, ATCC 10231, read-out: MIC
[28] = Dujonia zeylanoides, read-out: MIC
[29] = Candida albicans, ATCC 38247, read-out: MIC
[30] = Candida albicans, read-out: MIC

| Compound | MIC (Candida albicans [1]; [27]) [µg/mL] | MIC (Naganishia albida) [µg/mL] | MIC ([Candida] zeylanoides; [28]) [µg/mL] | MIC (Candida albicans [2]) [µg/mL] | MIC (Candida albicans [3]) [µg/mL] | MIC (Aspergillus niger) [µg/mL] | MIC (Candida albicans [4]; [29]) [µg/mL] | MIC (Candida albicans [5]) [µg/mL] | MIC (Kluyveromyces marxianus) [µg/mL] | MIC (Candida albicans [6]; [30]) [µg/mL] | MIC (Nakaseomyces glabratus) [µg/mL] | also measured |
| --- | --- | --- | --- | --- | --- | --- | --- | --- | --- | --- | --- | --- |
| CCCCCCCCOc1ccc(N2CCN(c3ccc(C(=O)N[C@H]4CCCNC(=O)[C@@H]5C[C@H](C(=O)CN)CN5C(=O)[C@H]([C@@H](C)O)NC(=O)[C@H](CCc5ccc(O)c(C(=O)CN)c5)NC(=O)[C@@H]5C[C@@H](O)CN5C(=O)[C@H]([C@@H](C)O)NC4=O)cc3)CC2)cc1 (X3-[Orn]T[Hyp][hTyr(3-COCH2NH2)]T[X6]; lactam 1-C) | 0.78 (≈ 0.644 µM) | 12.5 (≈ 10.3 µM) | 1.56 (≈ 1.29 µM) | 0.78 (≈ 0.644 µM) | 0.39 (≈ 0.322 µM) | 12.5 (≈ 10.3 µM) | 0.39 (≈ 0.322 µM) | 0.1 (≈ 0.0826 µM) | 1.56 (≈ 1.29 µM) | 0.78 (≈ 0.644 µM) | 1.56 (≈ 1.29 µM) | – |
| CCCCCOc1ccc(-c2ccc(-c3ccc(C(=O)N[C@H]4CCCNC(=O)[C@@H]5C[C@H](N=C(N)N)CN5C(=O)[C@H]([C@@H](C)O)NC(=O)[C@H](CCc5ccc(O)c(C(=O)CCN)c5)NC(=O)[C@@H]5C[C@@H](O)CN5C(=O)[C@H]([C@@H](C)O)NC4=O)cc3)cc2)cc1 ({pTerphenylCO(4''-OnC5H11)}-[Orn]T[Hyp][X4]T[Pro(cis-4-guanidino)]; lactam 1-C) | 0.39 (≈ 0.332 µM) | 12.5 (≈ 10.6 µM) | 0.39 (≈ 0.332 µM) | 0.2 (≈ 0.17 µM) | 0.2 (≈ 0.17 µM) | 6.25 (≈ 5.32 µM) | 0.2 (≈ 0.17 µM) | 0.2 (≈ 0.17 µM) | 1.56 (≈ 1.33 µM) | 0.2 (≈ 0.17 µM) | 1.56 (≈ 1.33 µM) | – |
| CCCCCCCCOc1ccc(-c2ccc(-c3ccc(C(=O)N[C@H]4CCCNC(=O)[C@@H]5C[C@H](N)CN5C(=O)[C@H]([C@@H](C)O)NC(=O)[C@H](CCc5ccc(O)c(C(=O)CN)c5)NC(=O)[C@@H]5CCCN5C(=O)[C@H]([C@@H](C)O)NC4=O)cc3)cc2)cc1 (X7-[Orn]TP[hTyr(3-COCH2NH2)]T[Pro(4S-NH2)]; lactam 1-C) | 1.56 (≈ 1.36 µM) | 12.5 (≈ 10.9 µM) | 0.78 (≈ 0.682 µM) | 0.78 (≈ 0.682 µM) | 0.78 (≈ 0.682 µM) | 25 (≈ 21.8 µM) | 0.78 (≈ 0.682 µM) | 0.1 (≈ 0.0874 µM) | 0.78 (≈ 0.682 µM) | 0.78 (≈ 0.682 µM) | 0.78 (≈ 0.682 µM) | – |
| CCCCCOc1ccc(-c2ccc(-c3ccc(C(=O)N[C@H]4CCCNC(=O)[C@@H]5C[C@H](N)CN5C(=O)[C@H]([C@@H](C)O)NC(=O)[C@H](CCc5ccc(O)c(C(=O)CN)c5)NC(=O)[C@@H]5C[C@@H](O)CN5C(=O)[C@H]([C@@H](C)O)NC4=O)cc3)cc2)cc1 ({pTerphenylCO(4''-OnC5H11)}-[Orn]T[Hyp][hTyr(3-COCH2NH2)]T[Pro(4S-NH2)]; lactam 1-C) | 0.1 (≈ 0.0894 µM) | 3.2 (≈ 2.86 µM) | 0.1 (≈ 0.0894 µM) | 0.01 (≈ 0.00894 µM) | 0.1 (≈ 0.0894 µM) | 0.2 (≈ 0.179 µM) | 0.2 (≈ 0.179 µM) | 0.1 (≈ 0.0894 µM) | 0.78 (≈ 0.697 µM) | 0.01 (≈ 0.00894 µM) | 0.2 (≈ 0.179 µM) | – |
| CCCCCOc1ccc(-c2ccc(-c3ccc(C(=O)N[C@H]4CCCNC(=O)C5C[C@H](N=C(N)N)CN5C(=O)[C@H]([C@@H](C)O)NC(=O)[C@H](CCc5ccc(O)c(NC(=O)CN)c5)NC(=O)[C@@H]5C[C@@H](O)CN5C(=O)[C@H]([C@@H](C)O)NC4=O)cc3)cc2)cc1 (stereo not given in full) ({pTerphenylCO(4''-OnC5H11)}-[Orn]T[Hyp][X1]T[X2]; lactam 1-C) | – | – | – | – | – | – | – | – | – | – | – | Vd [7]: 1.3 L/kg; AUC [8]: 36400 ng·h/mL; Vd [9]: 2.2 L/kg; half-life [10]: 11.5 h; AUC [11]: 6550 ng·h/mL; Vd [12]: 0.4 L/kg; Vd [13]: 0.2 L/kg; Vd [14]: 0.9 L/kg; half-life [15]: 3.3 h; Vd [16]: 1 L/kg; clearance [17]: 2.83 mL/min/kg; Vd [18]: 0.6 L/kg; clearance [19]: 1 mL/min/kg; clearance [20]: 2.33 mL/min/kg; clearance [21]: 0.5 mL/min/kg; Vd [22]: 0.6 L/kg; AUC [23]: 11700 ng·h/mL; AUC [24]: 16800 ng·h/mL; half-life [25]: 30.4 h; half-life [26]: 7.4 h |
| CCCCCOc1ccc(-c2ccc(-c3ccc(C(=O)N[C@H]4CCCNC(=O)[C@@H]5C[C@H](N=C(N)N)CN5C(=O)[C@H]([C@@H](C)O)NC(=O)[C@H](CCc5ccc(O)c(C(=O)CN)c5)NC(=O)[C@@H]5C[C@@H](O)CN5C(=O)[C@H]([C@@H](C)O)NC4=O)cc3)cc2)cc1 (stereo in doubt; 1) | – | 12.5 (≈ 10.8 µM) | – | 0.2 (≈ 0.172 µM) | 0.2 (≈ 0.172 µM) | 6.25 (≈ 5.39 µM) | – | 0.2 (≈ 0.172 µM) | 1.56 (≈ 1.34 µM) | – | 1.56 (≈ 1.34 µM) | MIC (Candida albicans [1]): 0.2 µg/mL (≈ 0.172 µM); MIC ([Candida] zeylanoides): 0.39 µg/mL (≈ 0.336 µM); MIC (Candida albicans [4]): 0.2 µg/mL (≈ 0.172 µM); MIC (Candida albicans [6]): 0.2 µg/mL (≈ 0.172 µM) |
